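Step 1: Grow cells in 96-well plates. Step 2: Expose to compound for 48 hours at 5 concentrations. Step 3: Interpolate endpoints linearly; if unreached, use highest concentration. Definition used: TGI = concentration required for complete inhibition of growth.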
Assays:
Assay in all cases: inhibition of tumour cell growth, NCI panel, 48 h
SN12C renal = test system: SN12C renal
NCI-H522 lung = test system: NCI-H522 lung
HT29 colon = test system: HT29 colon
SF-295 CNS = test system: SF-295 CNS
SK-MEL-5 melanoma = test system: SK-MEL-5 melanoma
SK-MEL-28 melanoma = test system: SK-MEL-28 melanoma
TK-10 renal = test system: TK-10 renal
KM20L2 colon = test system: KM20L2 colon
OVCAR-3 ovarian = test system: OVCAR-3 ovarian
SR leukemia = test system: SR leukemia
UACC-62 melanoma = test system: UACC-62 melanoma
MALME-3M melanoma = test system: MALME-3M melanoma
HL-60(TB) leukemia = test system: HL-60(TB) leukemia
SK-OV-3 ovarian = test system: SK-OV-3 ovarian
SNB-75 CNS = test system: SNB-75 CNS
K-562 leukemia = test system: K-562 leukemia
IGROV1 ovarian = test system: IGROV1 ovarian
NCI-H460 lung = test system: NCI-H460 lung
M19-MEL melanoma = test system: M19-MEL melanoma
SK-MEL-2 melanoma = test system: SK-MEL-2 melanoma
SF-268 CNS = test system: SF-268 CNS
LXFL 529 NSCLC = test system: LXFL 529 NSCLC
SF-539 CNS = test system: SF-539 CNS
XF 498 CNS = test system: XF 498 CNS
CCRF-CEM leukemia = test system: CCRF-CEM leukemia
OVCAR-4 ovarian = test system: OVCAR-4 ovarian
U251 CNS = test system: U251 CNS
MOLT-4 leukemia = test system: MOLT-4 leukemia
OVCAR-8 ovarian = test system: OVCAR-8 ovarian
M14 melanoma = test system: M14 melanoma
KM12 colon = test system: KM12 colon
NCI-H23 lung = test system: NCI-H23 lung
RXF 393 renal = test system: RXF 393 renal
A549 NSCLC = test system: A549 NSCLC
HOP-62 NSCLC = test system: HOP-62 NSCLC
EKVX NSCLC = test system: EKVX NSCLC
HOP-92 NSCLC = test system: HOP-92 NSCLC
SNB-19 CNS = test system: SNB-19 CNS
UACC-257 melanoma = test system: UACC-257 melanoma
RPMI-8226 leukemia = test system: RPMI-8226 leukemia
COLO 205 colon = test system: COLO 205 colon
HCT-116 colon = test system: HCT-116 colon
DMS 114 small cell lung = test system: DMS 114 small cell lung
SW-620 colon = test system: SW-620 colon
UO-31 renal = test system: UO-31 renal
786-0 renal = test system: 786-0 renal
OVCAR-5 ovarian = test system: OVCAR-5 ovarian
ACHN renal = test system: ACHN renal
LOX IMVI melanoma = test system: LOX IMVI melanoma
DLD-1 colon = test system: DLD-1 colon
DMS 273 small cell lung = test system: DMS 273 small cell lung
SNB-78 CNS = test system: SNB-78 CNS
CAKI-1 renal = test system: CAKI-1 renal
HOP-18 NSCLC = test system: HOP-18 NSCLC
HCT-15 colon = test system: HCT-15 colon
NCI-H226 lung = test system: NCI-H226 lung
A498 renal = test system: A498 renal
HCC-2998 colon = test system: HCC-2998 colon

Measured: TGI

O=C1C(Cl)N(c2ccc(Cl)cc2Cl)C1c1c[nH]c2ccccc12 (centres undefined)
not listed: 786-0 renal | OVCAR-5 ovarian | ACHN renal | LOX IMVI melanoma | DLD-1 colon | DMS 273 small cell lung | SNB-78 CNS | CAKI-1 renal | HOP-18 NSCLC | HCT-15 colon | NCI-H226 lung | A498 renal | HCC-2998 colon
> 100 µM: all other assays above

O=C(c1cccs1)N(C(=S)N1CCN(c2ccccc2)CC1)C1CCCCC1
not listed: XF 498 CNS | EKVX NSCLC | NCI-H226 lung | A498 renal | HCC-2998 colon
> 100 µM: all other assays above

O=C1CCC2(c3ccc(F)cc3)Nc3ncccc3N12 (centres undefined)
not listed: SR leukemia | SK-OV-3 ovarian | SNB-19 CNS | HCT-116 colon | DMS 114 small cell lung | DMS 273 small cell lung | HOP-18 NSCLC
> 100 µM: all other assays above

Reference: PubChem BioAssay (NCI)
